Our source for the inhibition in vivo values is patent US3983156A, “Substituted ω-nitroacetophenones” (Beecham Group Limited, priority 1973, dated 1976).

Molecules are shown by their SMILES.

One test concerns rat PCA response. The experiment in a line: Rat Passive Cutaneous Anaphylaxis (PCA) test. Type of test: in vivo, rat (Wistar). The following applies: sc, subcutaneous, 25 mg/kg, 0 mins prior to challenge. The protocol: Some of the ω-nitroacetophenones prepared in the preceding Examples were submitted for biological testing. The test system was the Rat Passive Cutaneous Anaphylaxis (PCA) test described below in (ii).
i. Serum containing heat labile homocytotropic antibody was raised in rats by a method similar to that used by Mota. (I. Mota Immunology 1964, 7, 681).
Male Wistar rats of 250-300 g, were injected intraperitoneally with 0.5 ml of Bordatella pertussis vaccine (containing 4 × 10^10 dead organism per ml) and subcutaneously with 0.5 ml of an emulsion of 100 mg. of ovalbumin in 2 ml of saline and 3 ml of incomplete Freunds' adjuvant. Rats were bled by cardiac puncture on day 18, the blood was pooled and separated and serum stored at -20° and thawed only once before use.
ii. The P.C.A. test was similar to that described by Ovary and Bier (A. Ovary and O. E. Bier, Prod. Soc. Exp. Biol. Med. 1952, 81, 584) and Goose and Blair (J. Goose and AM.J. N Blair, Immunology 1969, 16, 769)
0.1 ml of each of six twofold serial dilutions of the serum in 0.9% saline were injected intradermally into separate sites on the shaved dorsal surface of 250-350 g Wistar rats. 72 hours later the animals were challlenged by i.v. injection of 0.3 ml of 1% ovalbumin mixed with 0.1 ml of a 5% solution of pontamine sky blue dye both in isotonic saline buffered with pH. 7.2 Sorenson buffer (P.B.S.). The rats were killed after 20 minutes and the diameter of the blue wheals at the antibody injection sites were measured. The starting dilution of the serum was adjusted so that there was no response, after challenge, at the site of injection of the highest dilution and a maximum response at the two or three lowest dilutions. Typically, six twofold serial dilutions of the serum from 1/4 to 1/128 were used.
Compounds were tested for their ability to reduce the diameter of the wheals at the injection sites of dilutions of antibody which on all the controls have less than maximum response. Amounts of the compounds were administered to rats by subcutaneous injection, into the nuchal region, of a solution of the compound in P.B.S. or as a suspension in 1% methyl cellulose, each amount to a test group of six animals at a specified time prior to intravenous challenge with ovalbumin. THe diameters of the blue wheals which developed on the tests group of aimals were compared with those on a control group of six animals treated in the same way as the test group, but which; had received an equivalent subcutaneous injection of the carrier fluid not containing the same volume of the compound under test.
% Inhibition of P.C.A. = 100 (1 - a/b)
a = The mean of the sum of the diameters of the wheals produced in the test group of animals at those antibody sites where all the control group of animals gave less than maximum response.
b = The mean of the sum of diameters of the wheals produced in the control group of amimals at those antibody sites where all the animals in the group gave less than maximum response.
The preferred method of administration was a solution of the test compound dissolved in pH 7.2 buffer and neutralised with sodium bicarbonate. For those compounds having insoluble sodium salts, the salts were isolated by reaction of the free nitro compound with 2.5N sodium hydroxide and the filtered sodium salt washed free of alkali with water. The dried salts were then administered as a suspension in 1% methyl cellulose.
Turning to `COC(=O)c1cc(C)c(C)cc1C(=O)C[N+](=O)[O-]` [Example 3, 2-methoxycarbonyl-4,5-dimethyl-ω-nitroacetophenone], the inhibition in vivo at 25 mg/kg worked out at 22%.
For `CCOC(=O)c1ccccc1C(=O)C[N+](=O)[O-]` [Example 2, 2-ethoxycarbonyl-ω-nitroacetophenone], the inhibition in vivo at 25 mg/kg was determined as 22%.
On the same count and under the same terms, with `COC(=O)c1cccc(-c2ccccc2)c1C(=O)C[N+](=O)[O-]` [Example 7] the figure was 8%.
Same read-out and setting: the value for `COC(=O)c1ccccc1C(=O)C[N+](=O)[O-]` [Example 1, 2-methoxycarbonyl-ω-nitroacetophenone] was 0%; that for `CCCOC(=O)c1cc(C)c(C)cc1C(=O)C[N+](=O)[O-]` [Example 5, 2-^n propoxycarbonyl-4,5-dimethyl-ω-nitroacetophenone] was 7%; that for `O=C(O)c1ccccc1C(=O)C[N+](=O)[O-]` [Example 8, ω-nitroacetophenone-2-carboxylic acid] was 12%.
Same read-out and setting: the value for `Cc1cc(C(=O)O)c(C(=O)C[N+](=O)[O-])cc1C` [Example 9, 4,5-dimethyl-ω-nitroacetophenone-2-carboxylic acid] was 33%; that for `O=C(C[N+](=O)[O-])c1cccc(-c2ccccc2)c1C(=O)O` [Example 10, ω-nitro-3-phenylacetophenone-2-carboxylic acid] was 2%.
In the case of `CCOC(=O)c1cc(C)c(C)cc1C(=O)C[N+](=O)[O-]` [Example 4, 2-ethoxycarbonyl-4,5-dimethyl-ω-nitroacetophenone], the inhibition in vivo at 25 mg/kg turned out to be 12%.
On the same count and under the same terms, the value for `Cc1cc(C(=O)C[N+](=O)[O-])c(C(=O)OC(C)C)cc1C` [Example 6, 2-Isopropoxycarbonyl-4,5-dimethyl-ω-nitroacetophenone] was 16%.

Staying with this test, now noted: sc, subcutaneous, 25 mg/kg, 30 mins prior to challenge.
As to `O=C(O)c1ccccc1C(=O)C[N+](=O)[O-]` [Example 8, ω-nitroacetophenone-2-carboxylic acid], the inhibition in vivo at 25 mg/kg was found to be 18%.
The same measure, in the same setting: with `O=C(C[N+](=O)[O-])c1cccc(-c2ccccc2)c1C(=O)O` [Example 10, ω-nitro-3-phenylacetophenone-2-carboxylic acid] the figure was 11%; with `Cc1cc(C(=O)C[N+](=O)[O-])c(C(=O)OC(C)C)cc1C` [Example 6, 2-Isopropoxycarbonyl-4,5-dimethyl-ω-nitroacetophenone], 20%.

The same test, now with this note: sc, subcutaneous, 25 mg/kg, 60 mins prior to challenge.
Consider `COC(=O)c1cc(C)c(C)cc1C(=O)C[N+](=O)[O-]` [Example 3, 2-methoxycarbonyl-4,5-dimethyl-ω-nitroacetophenone], for which the inhibition in vivo at 25 mg/kg was determined as 51%.
On the same count and under the same terms, with `CCOC(=O)c1ccccc1C(=O)C[N+](=O)[O-]` [Example 2, 2-ethoxycarbonyl-ω-nitroacetophenone] the figure was 57%; with `COC(=O)c1cccc(-c2ccccc2)c1C(=O)C[N+](=O)[O-]` [Example 7], -13%; with `COC(=O)c1ccccc1C(=O)C[N+](=O)[O-]` [Example 1, 2-methoxycarbonyl-ω-nitroacetophenone], 32%.
Still for that read-out and setting: the value for `CCCOC(=O)c1cc(C)c(C)cc1C(=O)C[N+](=O)[O-]` [Example 5, 2-^n propoxycarbonyl-4,5-dimethyl-ω-nitroacetophenone] was 44%.
On the same count and under the same terms, the value for `Cc1cc(C(=O)O)c(C(=O)C[N+](=O)[O-])cc1C` [Example 9, 4,5-dimethyl-ω-nitroacetophenone-2-carboxylic acid] was 13%; that for `CCOC(=O)c1cc(C)c(C)cc1C(=O)C[N+](=O)[O-]` [Example 4, 2-ethoxycarbonyl-4,5-dimethyl-ω-nitroacetophenone] was 53%.

The same test, now with this note: sc, subcutaneous, 84 mg/kg, 0 mins prior to challenge.
In the case of `O=C(C[N+](=O)[O-])c1cccc(-c2ccccc2)c1C(=O)O` [Example 10, ω-nitro-3-phenylacetophenone-2-carboxylic acid], the inhibition in vivo at 84 mg/kg stood at 23%.

Still in this test, the particulars now being: sc, subcutaneous, 84 mg/kg, 30 mins prior to challenge.
Consider `O=C(C[N+](=O)[O-])c1cccc(-c2ccccc2)c1C(=O)O` [Example 10, ω-nitro-3-phenylacetophenone-2-carboxylic acid], for which the inhibition in vivo at 84 mg/kg came to 21%.

Still in this test, the particulars now being: sc, subcutaneous, 100 mg/kg, 0 mins prior to challenge.
As for `COC(=O)c1cc(C)c(C)cc1C(=O)C[N+](=O)[O-]` [Example 3, 2-methoxycarbonyl-4,5-dimethyl-ω-nitroacetophenone], the inhibition in vivo at 100 mg/kg worked out at 34%.
Still for that read-out and setting: with `CCOC(=O)c1ccccc1C(=O)C[N+](=O)[O-]` [Example 2, 2-ethoxycarbonyl-ω-nitroacetophenone] the figure was 34%; with `COC(=O)c1cccc(-c2ccccc2)c1C(=O)C[N+](=O)[O-]` [Example 7], 14%; with `COC(=O)c1ccccc1C(=O)C[N+](=O)[O-]` [Example 1, 2-methoxycarbonyl-ω-nitroacetophenone], 12%.
On to `CCCOC(=O)c1cc(C)c(C)cc1C(=O)C[N+](=O)[O-]` [Example 5, 2-^n propoxycarbonyl-4,5-dimethyl-ω-nitroacetophenone], for which the inhibition in vivo at 100 mg/kg was 11%.
Still for that read-out and setting: the value for `O=C(O)c1ccccc1C(=O)C[N+](=O)[O-]` [Example 8, ω-nitroacetophenone-2-carboxylic acid] was 48%; that for `Cc1cc(C(=O)O)c(C(=O)C[N+](=O)[O-])cc1C` [Example 9, 4,5-dimethyl-ω-nitroacetophenone-2-carboxylic acid] was 57%.
Still for that read-out and setting: the value for `CCOC(=O)c1cc(C)c(C)cc1C(=O)C[N+](=O)[O-]` [Example 4, 2-ethoxycarbonyl-4,5-dimethyl-ω-nitroacetophenone] was 16%; that for `Cc1cc(C(=O)C[N+](=O)[O-])c(C(=O)OC(C)C)cc1C` [Example 6, 2-Isopropoxycarbonyl-4,5-dimethyl-ω-nitroacetophenone] was 30%.

Staying with this test, now noted: sc, subcutaneous, 100 mg/kg, 30 mins prior to challenge.
`O=C(O)c1ccccc1C(=O)C[N+](=O)[O-]` [Example 8, ω-nitroacetophenone-2-carboxylic acid]: the inhibition in vivo at 100 mg/kg worked out at 37%.
The same measure, in the same setting: with `Cc1cc(C(=O)C[N+](=O)[O-])c(C(=O)OC(C)C)cc1C` [Example 6, 2-Isopropoxycarbonyl-4,5-dimethyl-ω-nitroacetophenone] the figure was 41%.

Still in this test, the particulars now being: sc, subcutaneous, 100 mg/kg, 60 mins prior to challenge.
Consider `COC(=O)c1cc(C)c(C)cc1C(=O)C[N+](=O)[O-]` [Example 3, 2-methoxycarbonyl-4,5-dimethyl-ω-nitroacetophenone], for which the inhibition in vivo at 100 mg/kg is 58%.
Take `CCOC(=O)c1ccccc1C(=O)C[N+](=O)[O-]` [Example 2, 2-ethoxycarbonyl-ω-nitroacetophenone]: the inhibition in vivo at 100 mg/kg stood at 58%.
Same read-out and setting: with `COC(=O)c1cccc(-c2ccccc2)c1C(=O)C[N+](=O)[O-]` [Example 7] the figure was -2%; with `COC(=O)c1ccccc1C(=O)C[N+](=O)[O-]` [Example 1, 2-methoxycarbonyl-ω-nitroacetophenone], 23%; with `CCCOC(=O)c1cc(C)c(C)cc1C(=O)C[N+](=O)[O-]` [Example 5, 2-^n propoxycarbonyl-4,5-dimethyl-ω-nitroacetophenone], 54%.
Still for that read-out and setting: with `Cc1cc(C(=O)O)c(C(=O)C[N+](=O)[O-])cc1C` [Example 9, 4,5-dimethyl-ω-nitroacetophenone-2-carboxylic acid] the figure was 32%; with `CCOC(=O)c1cc(C)c(C)cc1C(=O)C[N+](=O)[O-]` [Example 4, 2-ethoxycarbonyl-4,5-dimethyl-ω-nitroacetophenone], 42%.

By inhibition in vivo is commonly meant the relative decrease from the control value, in per cent.
